Data set [1] can be described thus: Pharmacokinetic evaluation in CD-1 mouse (intravenous). In kind it is in vivo. The settings on record: male, plasma, IV 0.21 mg/kg. As to the method: Assay purpose: To assay the pharmacokinetics of the compound in CD-1 mouse (intravenous)
Pharmacokinetic study of oral and intravenously injected compound 4 and reference example 1 (compound 005-1) in CD-1 mouse
Compound 4 and reference example 1 were mixed with the solvent (10% NMP/60% PEG400/30% H2O). The mixture was vortexed and sonicated to prepare a clarified solution of 0.1 mg/mL. 7- to 10-week old CD-1 male mice were selected, and the candidate compound solution was administered intravenously at a dose of 0.21 mg/kg.
Whole blood was collected for a certain period of time to prepare the plasma. Drug concentration was analyzed by LC-MS/MS, and pharmacokinetic parameters were calculated by Phoenix WinNonlin software (Pharsight, USA).

Data set [2] is described as follows: Plasma protein binding (PPB) assay, C. It is filed as in vitro ADME. Conditions: cynomolgus monkey, dialysis 4 hr 37° C. As to the method: (§1) Assay procedure: 995 μL of blank plasma of various genera were weighed, and 5 μL of assay compound working solution (400 μM) or warfarin working solution (400 μM) was added so that the final concentrations of the assay compound and warfarin in plasma sample were each 2 μM. The samples were mixed thoroughly. The final concentration of DMSO (the organic phase) was 0.5%. 50 μL of the plasma samples of the assay compound and warfarin were pipetted to a sample receiving plate (in triplicate), and the corresponding volume of corresponding blank plasma or buffer was added immediately, so that the final volume in each sample well was 100 μL, wherein the volume ratio of plasma:dialysis buffer was 1:1. 500 μL of stop solution was then added to these samples. These samples were used as T0 samples for determination of recovery and stability. […] All samples were subjected to protein precipitation, and then analyzed by LC/MS/MS. Bound rate and recovery rate of protein were calculated using the following formulae: % Unbound=100*F/T, % Bound=100−% Unbound, % Recovery=100*(F+T)/T0 (wherein F is the peak area ratio of the compound in the dialysate after 4 h of dialysis; T is the peak area ratio of the compound in the plasma after 4 h of dialysis; To is the peak area ratio of the compound in the plasma sample at time zero).

The subject of data set [3] is TMD8 cells. The data set is described as follows: BTK cell activity assay (CellTiter Glo). It is filed as cell-based. The settings on record: Homo sapiens, Cell Titer Glo, read-out: Relative IC50. As for the experimental part:
1. Cell Culture and Passage
The medium, trypsin and 1×PBS used in the cell passage process were preheated in a 37° C. water bath. The supernatant was aspirated.
1 mL of trypsin was added to rinse, and the rinse solution was aspirated. 1 mL of trypsin was added, respectively, and cells were digested at 37° C. until the cells fell off. 10 mL of culture medium was added and mixed well. The mixture was centrifuged at 1000 rpm for 5 min and the cells were resuspended in 10 mL of culture medium. 0.7 mL of cell suspension was pipetted into a counting cup and counted on ViCell XR to respectively obtain a cell density of 0.327 million/mL. 1.17 mL of cell suspension and culture medium were weighed, respectively, to dilute the cell suspension. According to the microplate layout diagram below, 100 μL of phosphate buffer was added to the peripheral wells of the 384-well microplate, and 40 μL of cell suspension was added to other wells, respectively. The cell plate was then cultured in an incubator.
2. Dosing • (1) Preparation of compound:
A 9 μL dilution of the compound to be assayed was added to a shallow-well plate for Pod (Labcyte, #LP-0200). The shallow-well plate was centrifuged at 2500 rpm for 30 s. • (2) The cell plate was removed from the incubator. • (3) According to the microplate layout diagram below, compounds were serially diluted 3-fold in Pod to obtain 10 concentrations. The diluted compounds were added to the cell plate at 100 nL, respectively, and then the cell plate was returned to the incubator for culture. • 3. At Day 0, 20 μL of CellTiter Glo was added to the plate with DMSO added, and the mixture was shaken in the dark for 10 minutes. The plate was read with Envision. • 4. At Day 5: CTG was added and the plate was read. • (1) After being cultured for 72 h, 20 μL of Cell Titer Glo was added to the cell plate, and the mixture was shaken in the dark for 10 minutes. • (2) The plate was read with Envision.
Assay Results • 1. Average value and standard deviation of 0% inhibition (DMSO well, MAX) and 100% inhibition (day 0, DMSO) in each group were calculated; • 2. […]
Background: Cellular ATP, detected with luciferase, serves as a proxy for viable cell number.

The nature of data set [4]: Plasma protein binding (PPB) assay, H. In kind it is in vitro ADME. Conditions: human, dialysis 4 hr 37° C. As to the method:
as §1

The nature of data set [5]: Assay of kinetic solubility. Conditions: buffer solution, aqueous buffer, kinetic from dmso stock, pH 6.5 in table head (method says pH 7.4), 24 hours room temperature, theoretical maximum 200 μM. It is filed as physicochemical. As to the method: The assay compound was dissolved in DMSO to prepare 10 mmol/L stock solution. 980 μL of dissolution medium was added to a 2 mL glass vial with a screw cap using a pipette (Eppendorf Research Company). […] The final concentrations of the assay compound and DMSO solution were 200 μM and 2%, respectively. The vias were capped. The theoretical maximum concentration was 200 μM. The mixture was shaken at 880 rpm at room temperature for 24 hours. The vials were centrifuged at 13,000 rpm for 30 minutes. 200 μL of supernatant was added to a 96-well plate using a digital pipette.

Data set [6] is described as follows: Pharmacokinetic evaluation in SD rat (oral). It is filed as in vivo. The settings on record: about 2 mg/kg.

The structures appear in SMILES notation. ≈ marks a conversion by molar mass, not a printed value.

What is called AUC(0-inf) is the area under the concentration-time curve extrapolated to infinity. Usually Vd stands for the apparent volume that relates the amount in the body to the concentration in plasma or blood. Higher therefore signals extensive tissue distribution. In general, clearance refers to the rate of elimination divided by the concentration. Read a high clearance as a high capacity for elimination. For orientation: half-life means the time in which the quantity being followed falls by half. High values mean slow loss, low ones fast loss. Broadly, the AUC is the area under the concentration-time curve, a measure of exposure. High values mean more exposure, low ones less exposure. Broadly, the fraction unbound is free concentration divided by total concentration. Higher therefore signals much free substance. Usually IC50 stands for the concentration that gives 50% inhibition. One may read the solubility as how much of the substance goes into solution per volume. A lower solubility goes with a poorly soluble substance. By Cmax is commonly meant the peak of the concentration-time curve. In general, bioavailability refers to dose-corrected exposure relative to a reference, in per cent. Consider `CO[C@@H]1C[C@@H](CO)OC[C@@H]1Nc1ncnc2[nH]cc(C(=O)c3ccc(Oc4ccccc4)cc3Cl)c12` [Compound 4], for which, in data set [1], the AUC(0-inf) was 3.11 µM·h, the C0 is 562 nM, the volume of distribution (Vd) came to 0.85 L/kg and the clearance turned out to be 2.12 mL/min/kg. Further, the half-life in data set [1] was 279 min. Besides, the AUC in data set [1] (AUCu = AUC0-inf * Unbound PPB (Mouse)) amounted to 0.0124 µM·h. Further, in data set [2], the fraction unbound at 4 h, 2 μM stood at 0.001. In addition, the IC50 in data set [3] came out at 261 nM. The same compound came in with a fraction unbound at 4 h, 2 μM in data set [4] of 0.004. The solubility at 24 h in data set [5] stood at 1.1 µM (≈ 0.56 µg/mL). Besides, the AUCu in data set [6] (AUCu = AUC0-inf * Unbound PPB (in vivo assay of PPB in rat)) was found to be 7.8 nM·h. Moreover, in data set [6] (male, plasma), the AUC(0-inf) amounted to 3.89 µM·h, the concentration peaked (Cmax) at 587 nM, the bioavailability turned out to be 57.3% and the half-life is 140 min.
